{"source": "patent US9724354B2", "about": "“Combination of catalytic mTORC1/2 inhibitors and selective inhibitors of Aurora A kinase” (Millennium Pharmaceuticals, Inc., priority 2013, dated 2017)", "key": {"[1]": {"tested_on": "SUM-149PT breast xenograft", "assay": "In vivo tumor efficacy, SUM-149PT breast xenograft model", "design": "species or system Balb/c Nude mice", "settings": "PO", "protocol": "SUM-149PT (5×10^6) is a tumor cell line grown in Ham's F12 (BD Biosciences) media with 5% FBS, supplemented with 5 μg/ml insulin and 1 μg/ml hydrocortisone media mixed with an equal volume of Matrigel (BD Biosciences). Cell suspension at passage 84 was aseptically injected into the subcutaneous space in the right dorsal flank of Balb/c Nude mice (age 8 weeks, Shanghai SINO-British SIPPR/BK Lab Animal Ltd.) using a 25-gauge needle.\n(§1) MLN8237 was formulated in 10% HPbCD+1% NaHCO3 and administered by oral injection (1 cc syringe, 20-22 gauge, oral gavages needle) on QD schedule at 3 mg/kg and 20 mg/kg for 21 days. MLN8237 as used in the experimental section refers to sodium 4-{[9-chloro-7-(2-fluoro-6-methoxyphenyl)-5H-pyrimido[5,4-d][2]benzazepin-2-yl]amino}-2-methoxybenzoate monohydrate and the amount referenced is the amount of alisertib dosed. MLN8237 is dosed 24 hours prior to MLN0128 in all three models.\n(§2) MLN0128 is formulated in 100% PEG400 and administered by oral injection (1 cc syringe, 20-22 gauge, oral gavages needle) on QD schedule at 0.3 mg/kg for 21 days. 1 mg/kg QD×3/weeks for 3 weeks. MLN0128 is dosed 24 hours after MLN8237 dosing.\n(§3) Tumors are measured twice weekly using a vernier caliper. Tumor volumes are calculated using standard procedures (0.5×(length×width^2)). When the tumors reached a volume of approximately 200 mm^3 (PHTX-14B, PHTX-147B) or 167 mm^3 (SUM-149PT), mice are randomized into groups of 8 as described in the tables below, and dosed with vehicle, MLN8237 or MLN0128 or the combination of MLN8237 with MLN0128, at various doses as described below in Tables 8a-10a. Tumor size and body weight are measured approximately twice a week for the duration of the study. Mice are euthanized when their tumor volume reached 10% of their body weight, or when the average tumor volume of a treatment or control group reached approximately 2000 mm^3. Tumor growth continued to be monitored after the dosing period in some studies. Average tumor volume is reported as a function of time for selected groups of selected studies in FIGS. 3, 4 and 5.\n(§4) Measurements from day 0 to 21 are analyzed as specified in Tables 8a-10a. All tumor volumes have a value of 1 added to them before log10 transformation. For each animal, the log tumor volume at day 0 is subtracted from the log tumor volume on the subsequent days. This difference vs. time is used to calculate an area under the curve (AUC) for each animal using the trapezoid rule. In instances when an animal in a treatment group is removed early from the study, the last observed tumor value is carried forward through all subsequent time points. The synergy score for the combination of agents A and B is defined as: 100*(mean(AUCAB)−mean(AUCA)−mean(AUCB)+mean(AUCctl))/mean(AUCctl): where AUCAB, AUCA, AUCB, and AUCctl are the AUC values for animals in the combination group, the A group, the B group, and the control group, respectively. The standard error of the synergy score is computed based on the variation in the AUC values among the animals. […] If the P-value is above 0.05, then the combination is considered to be additive. If the P-value is below 0.05, and the synergy score is less than zero, then the combination is considered to be synergistic. […] Otherwise, the combination is classified as antagonistic."}, "[2]": {"tested_on": "PHTX-147B breast xenograft", "assay": "In vivo tumor efficacy, PHTX-147B breast xenograft model", "design": "species or system female Balb/c nude mice", "settings": "PO", "text": "(§5) The PHTX-147B breast xenograft model was established from a patient-derived tumor collected during surgery from a person with ductal carcinoma classified as triple negative breast cancer (ER−/PR−/Her2−) by IHC. PHTX-147B tumor fragments (approximately 2×2×3 mm^3) at passage 7 are implanted into the subcutaneous space in the right dorsal flank of female Balb/c nude mice (age 4-6 weeks, Shanghai SINO-British SIPPR/BK Lab Animal Ltd.).\nas §1, §2, §3, §4"}, "[3]": {"tested_on": "PHTX-14B breast xenograft", "assay": "In vivo tumor efficacy, PHTX-14B breast xenograft model", "design": "species or system female Balb/c nude mice", "settings": "for Average tumor volume at day 21: PO", "text": "as §5, with “PHTX-14B” for “PHTX-147B”, “Ltd) using a 13-gauge trocar tumor implantation needle.” for “Ltd.).”\nas §1, §2, §3, §4"}, "[4]": {"settings": "MLN0128 alone at 0.3 mg/kg, QD×21"}, "[5]": {"settings": "MLN8237 alone at 3 mg/kg, QD×21"}, "[6]": {"settings": "MLN8237 alone at 20 mg/kg, QD×21"}}, "data": [{"smiles": "CC(C)n1nc(-c2ccc3oc(N)nc3c2)c2c(N)ncnc21", "note": "[MLN0128, 3-(2-amino-1,3-benzoxazol-5-yl)-1-(propan-2-yl)-1H-pyrazolo [3,4-d] pyrimidin-4-amine]", "values": [{"measurement": "Average tumor volume at day 21", "setting": "[1]; 0.3 mg/kg MLN0128, QD", "value": 524.5, "unit": "mm^3"}, {"measurement": "Average tumor volume at day 21", "setting": "[1]; 1 mg/kg MLN0128, QD × 3/week", "value": 696.8, "unit": "mm^3"}, {"measurement": "effect on growth of SUM149PT xenografts", "setting": "[1]; [4]", "value": "significantly delayed the growth"}, {"measurement": "effect on growth of SUM149PT xenografts", "setting": "[1]; MLN0128 alone at 1.0 mg/kg, QD×3/wk×3 weeks", "value": "only responded lightly"}, {"measurement": "Average tumor volume at day 21", "setting": "[2]; 0.3 mg/kg MLN0128, QD", "value": 1354.1, "unit": "mm^3"}, {"measurement": "Average tumor volume at day 21", "setting": "[2]; 1 mg/kg MLN0128, QD × 3/week", "value": 974.8, "unit": "mm^3"}, {"measurement": "effect on growth of PHTX-147B xenografts", "setting": "[2]; [4]", "value": "responded moderately"}, {"measurement": "effect on growth of PHTX-147B xenografts", "setting": "[2]; MLN0128 alone at 1.0 mg/kg, QD×3/wk×3", "value": "significantly delayed the growth"}, {"measurement": "Average tumor volume at day 21", "setting": "[3]; 0.3 mg/kg MLN0128, QD", "value": 539.1, "unit": "mm^3"}, {"measurement": "Average tumor volume at day 21", "setting": "[3]; 1 mg/kg MLN0128, QD × 3/week", "value": 475.6, "unit": "mm^3"}, {"measurement": "effect on growth of PHTX-14B xenografts", "setting": "[3]; MLN0128 at 0.3 mg/kg alone, QD×21", "value": "significantly delayed growth"}, {"measurement": "effect on growth of PHTX-14B xenografts", "setting": "[3]; MLN0128 at 1.0 mg/kg alone", "value": "significantly delayed growth"}]}, {"smiles": "COc1cc(Nc2ncc3c(n2)-c2ccc(Cl)cc2C(c2c(F)cccc2OC)=NC3)ccc1C(=O)[O-].O.[Na+]", "note": "[MLN8237, sodium 4-{[9-chloro-7-(2-fluoro-6-methoxyphenyl)-5H-pyrimido[5,4-d][2]benzazepin-2-yl]amino}-2-methoxybenzoate monohydrate]", "values": [{"measurement": "Average tumor volume at day 21", "setting": "[1]; 3 mg/kg MLN8237, QD", "value": 613.4, "unit": "mm^3"}, {"measurement": "Average tumor volume at day 21", "setting": "[1]; 20 mg/kg MLN8237, QD", "value": 451.6, "unit": "mm^3"}, {"measurement": "effect on growth of SUM149PT xenografts", "setting": "[1]; [5]", "value": "significantly delayed the growth"}, {"measurement": "effect on growth of SUM149PT xenografts", "setting": "[1]; [6]", "value": "significantly delayed the growth"}, {"measurement": "Average tumor volume at day 21", "setting": "[2]; 3 mg/kg MLN8237, QD", "value": 1951.9, "unit": "mm^3"}, {"measurement": "Average tumor volume at day 21", "setting": "[2]; 20 mg/kg MLN8237, QD", "value": 1694.9, "unit": "mm^3"}, {"measurement": "effect on PHTX-147B xenograft growth", "setting": "[2]; [5]", "value": "only slight or no effect"}, {"measurement": "effect on PHTX-147B xenograft growth", "setting": "[2]; [6]", "value": "only slight or no effect"}, {"measurement": "Average tumor volume at day 21", "setting": "[3]; 3 mg/kg MLN8237, QD", "value": 795.1, "unit": "mm^3"}, {"measurement": "Average tumor volume at day 21", "setting": "[3]; 20 mg/kg MLN8237, QD", "value": 533.9, "unit": "mm^3"}, {"measurement": "antitumor activity in PHTX-14B xenografts", "setting": "[3]; MLN8237 at 3 mg/kg alone, QD×21", "value": "limited and not significant"}, {"measurement": "effect on growth of PHTX-14B xenografts", "setting": "[3]; MLN8237 at 20 mg/kg alone, QD×21", "value": "significantly delayed growth"}]}]}
